Measured values taken from US20210087159A1, “TETRAHYDROCANNABINOLIC- CA[…] DERIVATIVES AND USES THEREOF” (AL&AM […]., priority 2018, published 2021).

Assays:
Assay type in all cases: cell-based
[1] = test system: OMP-2, multiple myeloma; assay: CellTiter-Glo cell viability assay, cancer cell cytotoxicity/anti-proliferation panel (Chempartner); conditions: for IC50: 72 h, read-out: IC50 (absolute IC50); for Inhibition: OMP-2, 72 hours, compounds 10 μM starting, STS 2 μM starting, 10-pt, 3-fold dilution
[2] = test system: SK-HEP-1, liver adenocarcinoma; assay: as above; conditions: for IC50: Homo sapiens, SK-HEP1, 72 h, read-out: IC50 (absolute IC50); for Inhibition: SK-HEP-1, 72 hours, compounds 10 μM starting, STS 2 μM starting, 10-pt, 3-fold dilution
[3] = test system: TNF-α; assay: LPS induced cytokine release assay, TNF-α by ELISA in PBMCs; conditions: human PBMCs; for TNF-α: 72 h, ELISA (LPS control 18.16); for change of TNF-α expression in LPS-treated cells: tested concentrations of 1 M and 10 M (so in the source)
Source text: This study was aimed to test the effect of 12 compounds (THCA, Ia1, Ia5, Ia6, Ia9, Ia11, Ia15, Ia17, Ia24, Ia25, Ia27, and Ia28) on human peripheral blood mononuclear cells (PBMCs) challenged by lipopolysaccharide (LPS) through monitoring multiple inflammatory endpoints.
Blood samples were collected from healthy volunteers according to protocols that have been reviewed and approved by the Chempartner Institutional Ethic Committee (IEC) upon signing an Informed Consent Form (ICF).
Fresh PBMCs were isolated and seeded into 96-well plate, and diluted solutions of the tested compounds and 0.1 μg/mL LPS were then added (in triplicates). To serve as control, 3 wells with PBMCs only, 3 wells with 0.1 μg/mL LPS, and 2 wells with 1 μg/mL dexamethasone (Dex) and 0.1 μg/mL LPS were included. After 72 hours incubation, supernatant was collected for tumor necrosis factor-α (TNF-α) measurement by enzyme-linked immunosorbent assay (ELISA), and cell pellets were harvested for cell proliferation measurement by CellTiter-Glo® Luminescent Cell Viability Assay (CTG).
The human blood sample from an individual donor was diluted by the same volume of sterile phosphate buffered solution (PBS) and mixed sufficiently by gentle shake. 15 mL Lymphoprep™ medium was transferred into a new 50 mL centrifuge tube, and the diluted blood sample (30 mL) was then carefully added onto the surface of the medium, which consequently contained Ficoll 400 and blood in a volume ratio of 1:2. Four interfaces were observed after centrifugation, which are, from top to bottom, layers of plasma, mononuclear cells, Ficoll medium, and red blood cells (RBCs). Plasma was absorbed, and mononuclear cells were then transferred into another new sterile centrifuge tube. Then, sterile PBS buffer was added into the collected PBMCs for washing, at a volume ratio of 3:1. PBMCs were washed with 5-10 mL PBS twice before cell counting with cytometer. Cells were centrifuged at 350×g, for 10 min, at 20° C. with the acceleration (5) and deceleration (5) settings during the centrifugation. The cells were resuspended with RPMI 1640 complete medium (containing 10% FBS) for assay, and the density was adjusted with RPMI 1640 complete medium to the final concentration of 2E6 cells/mL. Cells suspension of the PBMCs (100 μL/well) were seeded into 96-well plate (#3903).
Diluted solutions of the tested compounds were prepared with RPMI 1640 complete medium according to the following layout. Compounds were prepared at 5-fold of concentration (50 μM), and then were diluted to the working concentration of 10 μM with RPMI 1640 complete medium and made 10-fold serially dilution (2 points). The diluted compounds (50 μL/well) were added to the indicated wells, and the plate was incubated at 37° C., 5% CO2, for 72 h.
LPS (0.1 μg/mL, 100 μL) was added into each well. Dex (1 μg/mL) was included as a positive control. Plate was incubated at 37° C., 5% CO2 for 72 h. Supernatant was collected to measure TNF-α by ELISA. Cell proliferation was detected by CTG.

Row | SMILES | IC50 [1] | Inhibition [1] | IC50 [2] | Inhibition [2] | TNF-α ([3]; compound 1 μM + 0.1 μg/mL LPS) | TNF-α ([3]; compound 10 μM + 0.1 μg/mL LPS) | change of TNF-α expression in LPS-treated cells [3]
1 | CCCCCc1cc2c(c(O)c1C(=O)O)[C@@H]1C=C(C)CC[C@H]1C(C)(C)O2 [THCA, tetrahydrocannabinolic acid, reference compound] | > 10 µM | 5.94% | > 10 µM | 16.52% | 21.04 pg/mL | 27.57 pg/mL | increased TNF-α expression
2 | C=C(C)[C@@H]1CCC(C)=C[C@H]1c1c(O)cc(CCCCC)c(C(=O)NCCCN2CCOCC2)c1O [Ia28, (1′R,2′R)-2,6-dihydroxy-5′-methyl-N-(3-morpholinopropyl)-4-pentyl-2′-(prop-1-en-2-yl)-1′,2′,3′,4′-tetrahydro-[1,1′-biphenyl]-3-carboxamide] |  |  |  |  | 41.38 pg/mL | 22.35 pg/mL | decreased TNF-α expression
3 | CCCCCc1cc2c(c(O)c1C(=O)NCCN(C)C)[C@@H]1C=C(C)CC[C@H]1C(C)(C)O2 [Ia6, (6aR,0aR)—N-(2-(dimethylamino)ethyl)-1-hydroxy-6,6,9-trimethyl-3-pentyl-6a,7,8,10a-tetrahydro-6H-benzo[c]chromene-2-carboxamide] | > 10 µM | 47.73% | > 10 µM | 49.38% | 17.09 pg/mL | 49.73 pg/mL | increased TNF-α expression
4 | CCCCCc1cc2c(c(O)c1C(=O)NCCCN1CCOCC1)[C@@H]1C=C(C)CC[C@H]1C(C)(C)O2 [Ia9, (6aR,0aR)-1-hydroxy-6,6,9-trimethyl-N-(3-morpholinopropyl)-3-pentyl-6a,7,8,10a-tetrahydro-6H-benzo[c]chromene-2-carboxamide] | 6.72 µM | 76.40% | 5.41 µM | 78.20% | 20.26 pg/mL | 45.82 pg/mL | increased TNF-α expression
